Data on 20 compounds can be found in patent US7166744B2, “Retinoid derivatives and methods for producing said compounds and anti-cancer pharmaceutical composition comprising said compounds” (Chebigen Co., Ltd., priority 2001, dated 2007).

The subject of one experiment is colon cancer cells. Put plainly: MTT proliferation assay, colon cancer cells (Table 1). The experiment is classed as cell-based. Conditions: 48 hours, concentration required for 50% growth inhibition, read-out: IC50, activities of various retinoid derivatives in colon cancer cells. The protocol:
The effects of test compounds on proliferation of various cancer cells was examined by 3-(4,5-dimethylthiazol-2-yl)-2,5-diphenyltetrazolium bromide (MTT, Sigma) assay in a dose dependent manner. In the MTT assay, colon, liver, cervix, ovary, and breast cancer cell lines were treated with test compounds at various concentrations. Living cancer cells reduce MTT to dark blue MTT formazan that would be measured by absorbance.
Colon cancer cells, HCT116, DLD-1 and HT29, cervix cancer cells, HeLa and CaSki, ovary cancer cells, SKOV-3, 2774 and OVCAR-3, liver cancer cells, SK-Hep-1, PLCPRF5 and HepG2, and breast cancer cells, ZR75-1 and MDA-MB 231 were seeded at an initial density of 3000 cells per well in 96-well plates. After attachment of cells to the walls of the wells, the medium containing fresh retinoid was treated with various concentrations (0.5 μM, 1 μM, 2.5 μM, 5 μM, 10 μM) for 48 hours. 50 μl of MTT solution (2 mg/ml in PBS) was added to cell culture media. The reaction micture was incubated at 37° C. in a 5% CO2 atmosphere for 4 hours. The supernatant was removed and 150 μl of DMSO was added. The optical density was measured spectrophotometrically at 550 nm. […] For other retinoid derivatives according to the present invention, absorbances were measured by this procedure and IC50 values, concentrations required for 50% growth inhibition, were determined.
`CCC(=O)Oc1cc(O)ccc1NC(=O)/C=C(C)/C=C/C=C(C)/C=C/C1=C(C)CCCC1(C)C` [KCBG15, 2-[(2E,4E,6E,8E)-3,7-dimethyl-9-(2,6,6-trimethylcyclohex-1-enyl)-nona-2,4,6,8-tetraenoylamino]-5-hydroxyphenylpropionate]: the half-maximal inhibitory concentration (IC50) is 8 µM.
On the same count and under the same terms, the same measure for `CC1=C(/C=C/C(C)=C/C=C/C(C)=C/C(=O)Nc2ccc(OC(=O)CCC(=O)O)cc2)C(C)(C)CCC1` [KCBG50, 4-(4-[(2E,4E,6E,8E)-3,7-dimethyl-9-(2,6,6-trimethyl-1-cyclohexenyl)-2,4,6,8-nonatetraenoyl]aminophenoxy)-4-oxobutanoic acid]: 5.5 µM; for `CC(=O)NC(CCC(N)=O)C(=O)Oc1ccc(NC(=O)/C=C(C)/C=C/C=C(C)/C=C/C2=C(C)CCCC2(C)C)cc1` (stereo not drawn) [KCBG52, 4-[(2E,4E,6E,8E)-3,7-dimethyl-9-(2,6,6-trimethylcyclohex-1-enyl)-nona-2,4,6,8-tetraenoylamino]phenyl-2-acetylamino-4-carbamoylbutanoate]: 7 µM; for `CCCCS(=O)(=O)Oc1ccc(NC(=O)/C=C(C)/C=C/C=C(C)/C=C/C2=C(C)CCCC2(C)C)cc1` [KCBG43, 4-[(2E,4E,6E,8E)-3,7-dimethyl-9-(2,6,6-trimethyl-1-cyclohexenyl)-2,4,6,8-nonatetraenoyl]aminophenyl-1-butanesulfonate]: 4 µM.
Regarding “4-(4-[(2E,4E,6E,8E)-3,7-dimethyl-9-(2,6,6-trimethyl-1-cyclohexenyl)-2,4,6,8-nonatetraenoyl]aminophenoxy)-oxo-hexanedioic acid [KCBG51]”, the IC50 amounted to 4.5 µM.
The same measure, in the same setting: the same measure for `CC(=O)C(=O)Oc1cc(O)ccc1NC(=O)/C=C(C)/C=C/C=C(C)/C=C/C1=C(C)CCCC1(C)C` [KCBG22, 2-[(2E,4E,6E,8E)-3,7-dimethyl-9-(2,6,6-trimethylcyclohex-1-enyl)-nona-2,4,6,8-tetraenoylamino]-5-hydroxyphenyl-2-oxopropionate]: 6 µM; for `CC(=O)C(=O)Oc1ccc(NC(=O)/C=C(C)/C=C/C=C(C)/C=C/C2=C(C)CCCC2(C)C)cc1` [KCBG45, 4-[(2E,4E,6E,8E)-3,7-dimethyl-9-(2,6,6-trimethyl-1-cyclohexenyl)-2,4,6,8-nonatetraenoyl]aminophenyl-2-oxopropanoate]: 7 µM; for `CCC(=O)C(=O)Oc1ccc(NC(=O)/C=C(C)/C=C/C=C(C)/C=C/C2=C(C)CCCC2(C)C)cc1` [KCBG47, 4-[(2E,4E,6E,8E)-3,7-dimethyl-9-(2,6,6-trimethyl-1-cyclohexenyl)-2,4,6,8-nonatetraenoyl]aminophenyl-2-oxobutanoate]: 1.8 µM.
Same read-out and setting: in the case of `CCCC(=O)Nc1cc(NC(=O)/C=C(C)/C=C/C=C(C)/C=C/C2=C(C)CCCC2(C)C)ccc1OC(=O)CCC` [KCBG42, 2-Butyrylamino-4-(2E,4E,6E,8E)-[3,7-dimethyl-9-(2,6,6-trimethylcyclohex-1-enyl)-nona-2,4,6,8-tetraenoylamino]-phenylbutanoate] it was 7 µM.
Same read-out and setting: in the case of `CC1=C(/C=C/C(C)=C/C=C/C(C)=C/C(=O)Nc2ccc(O)cc2O)C(C)(C)CCC1` [KCBG08, (2E,4E,6E,8E)-[3,7-dimethyl-9-(2,6,6-trimethylcyclohex-1-enyl)-nona-2,4,6,8-tetraenoyl]-(2,4-dihydroxy)phenylamide] it was over 100 µM; in that of `CCCC(=O)Oc1ccc(NC(=O)/C=C(C)/C=C/C=C(C)/C=C/C2=C(C)CCCC2(C)C)cc1OC(=O)CCC` [KCBG34, 2-Butyryloxy-5-(2E,4E,6E,8E)-[3,7-dimethyl-9-(2,6,6-trimethylcyclohex-1-enyl)-nona-2,4,6,8-tetraenoylamino]phenylbutanoate], 3 µM.
Take `CCCC(=O)Oc1cc(NC(=O)/C=C(C)/C=C/C=C(C)/C=C/C2=C(C)CCCC2(C)C)ccc1O` [KCBG35, 5-(2E,4E,6E,8E)-[3,7-dimethyl-9-(2,6,6-trimethylcyclohex-1-enyl)-nona-2,4,6,8-tetraenoylamino]-2-hydroxyphenylbutanoate]: the IC50 was determined as 2 µM.
Still for that read-out and setting: in the case of `CC1=C(/C=C/C(C)=C/C=C/C(C)=C/C(=O)Nc2ccc(OC(=O)CCCCCCC(=O)O)cc2)C(C)(C)CCC1` [KCBG54, 4-(4-[(2E,4E,6E,8E)-3,7-dimethyl-9-(2,6,6-trimethyl-1-cyclohexenyl)-2,4,6,8-nonatetraenoyl]aminophenoxy)-oxo-octanedionic acid] it was 3.5 µM; in that of “4-(4-[(2E,4E,6E,8E)-3,7-dimethyl-9-(2,6,6-trimethyl-1-cyclohexenyl)-2,4,6,8-nonatetraenoyl]aminophenoxy)-oxo-heptanedioic acid [KCBG53]”, 6.5 µM; in that of `CCC(=O)C(=O)Oc1cc(O)ccc1NC(=O)/C=C(C)/C=C/C=C(C)/C=C/C1=C(C)CCCC1(C)C` [KCBG38, 2-[(2E,4E,6E,8E)-3,7-dimethyl-9-(2,6,6-trimethylcyclohex-1-enyl)-nona-2,4,6,8-tetraenoylamino]-5-hydroxyphenyl 2-oxobutanoate], 2 µM.
The same measure, in the same setting: the same measure for `CC1=C(/C=C/C(C)=C/C=C/C(C)=C/C(=O)Nc2ccc(O)cc2OC(=O)CC(C)O)C(C)(C)CCC1` (stereo not drawn) [KCBG39, 2-[(2E,4E,6E,8E)-3,7-dimethyl-9-(2,6,6-trimethylcyclohex-1-enyl)-nona-2,4,6,8-tetraenoylamino]-5-hydroxyphenyl-3-hydroxybutanoate]: 3 µM; for “2-[(2E,4E,6E,8E)-3,7-Dimethyl-9-(2,6,6-trimethylcyclohex-1-enyl)-nona-2,4,6,8-tetraenoylamino]-5-hydroxyphenyl(dimethylamino)acetate [KCBG23]”: 3.5 µM; for `CCCC(=O)Nc1ccc(NC(=O)/C=C(C)/C=C/C=C(C)/C=C/C2=C(C)CCCC2(C)C)cc1` [KCBG40, (2E,4E,6E,8E)-[3,7-dimethyl-9-(2,6,6-trimethylcyclohex-1-enyl)-nona-2,4,6,8-tetraenoylamino]-(4-butyrylamino)phenylamide]: 0.6 µM.
On the same count and under the same terms, in the case of “4-(4-[(2E,4E,6E,8E)-3,7-dimethyl-9-(2,6,6-trimethyl-1-cyclohexenyl)-2,4,6,8-nonatetraenoyl]aminophenoxy)-4-oxobutanoic acid [KCBG32]” it was 5 µM; in that of `CCCC(=O)Oc1ccc(NC(=O)C=C(C)C=CC=C(C)C=CC2=C(C)CCCC2(C)C)c(OC(=O)CCC)c1` [KCBG09, 5-Butyryloxy-2-[3,7-dimethyl-9-(2,6,6-trimethylcyclohex-1-enyl)-nona-2,4,6,8-tetraenoylamino]-phenylbutanoate], 10 to 20 µM.

For another experiment, the system named is HCT116 colon cancer cells. As to the kind of experiment: DAPI staining of nuclei, HCT116. Type of experiment: cell-based. Conditions: HCT116, 5 μM, 36 h. As to the method:
By DAPI (4,6-diamidino-2-phenylindole) staining assay for staining DNA in cellular nucleus, nuclear condensation and fragmentation, characteristic features of apoptosis, were observed. […] In FIG. 4, the control represents non-treated cells. The sub-G1 DNA contents of colon cancer HTC116 cells and breast cancer MCF-7 cells were measured by FACS (Fluorescence-Activated Cell Sorter) assay to quantify the apoptosis (FIG. 5). Finally, in order to further characterize the apoptosis observed in retinoid derivative-treated cells, the cleavage of apoptosis-related proteins, including PARP (poly(ADP-ribose)polymerase) and CPP32 (caspase-3) by Western blotting. […] PARP cleavage occurred in a time-dependent manner, in parallel with the induction of apoptosis (FIG. 6B). C in FIG. 6 represents the result of Western blotting of non-treated cells.
Meanwhile, HPR which is a precursor during the synthesis process of KCBG60 is known to induce apoptosis. Considering that the cells aggregated into small spherical mass upon treatment with KCBG60, KCBG60 is expected to induce apoptosis. In order to confirm apoptosis induced by KCBG60 once again, KCBG60-treated HCT116 cells were stained with DAPI and observed for nuclear condensation, an indicative of apoptosis (FIG. 12).
For the compound `CCCC(=O)Nc1ccc(NC(=O)/C=C(C)/C=C/C=C(C)/C=C/C2=C(C)CCCC2(C)C)cc1` [KCBG40, (2E,4E,6E,8E)-[3,7-dimethyl-9-(2,6,6-trimethylcyclohex-1-enyl)-nona-2,4,6,8-tetraenoylamino]-(4-butyrylamino)phenylamide], the “nuclear condensation and fragmentation (DAPI)” value is listed as “largely showed nuclear fragmentation”.

For a further experiment, the system named is MMP-1 mRNA expression. As to the kind of experiment: RT-PCR of MMP-1 mRNA in HCT116. The experiment is classed as cell-based. Conditions: HCT116, 1 μM, 36 hours. The protocol:
(§1) Previously, it was shown that the synthetic retinoid derivatives inhibit the transcriptional activity of AP-1. Also, it is well known that MMP (matrix metalloproteinase), a main target gene of AP-1 is involved in metastasis of cancer cells. Therefore, the inhibitive effects of the retinoid derivatives on metastasis of cancer was examined by RT-PCR analysis. Colon cancer HCT116 cells were treated with 1 μM retinoid for 36 hours. RNA was isolated from the cells and mRNA expression levels of MMP-1, -2 and -3 were analyzed by RT-PCR. […] As the control, GAPDH was used and it was confirmed that its expression was not affected by retinoid. Meanwhile, the expression level of MMP-3 was affected weakly by KCBG40, intermediately by KCBG41 but strongly by KCBG10 (FIG. 9).
(§2) RNA was isolated from the cells and mRNA expression levels of MMP-1, -2 and -3 were analyzed by RT-PCR (FIG. 14).
In the case of `CCCC(=O)Nc1ccc(NC(=O)/C=C(C)/C=C/C=C(C)/C=C/C2=C(C)CCCC2(C)C)cc1` [KCBG40, (2E,4E,6E,8E)-[3,7-dimethyl-9-(2,6,6-trimethylcyclohex-1-enyl)-nona-2,4,6,8-tetraenoylamino]-(4-butyrylamino)phenylamide], the “inhibition of MMP-1 mRNA expression” value is recorded as “affected very little”.

The test system of a further experiment is MMP-2 mRNA expression. Put plainly: RT-PCR of MMP-2 mRNA in HCT116. The experiment is classed as cell-based. The conditions noted are these: HCT116, 1 μM, 36 hours. The protocol: as §1, §2
`CCCC(=O)Nc1ccc(NC(=O)/C=C(C)/C=C/C=C(C)/C=C/C2=C(C)CCCC2(C)C)cc1` [KCBG40, (2E,4E,6E,8E)-[3,7-dimethyl-9-(2,6,6-trimethylcyclohex-1-enyl)-nona-2,4,6,8-tetraenoylamino]-(4-butyrylamino)phenylamide]: the “inhibition of MMP-2 mRNA expression” value is given as “affected very little”.

Another experiment has as its system MMP-3 mRNA expression. As to the kind of experiment: RT-PCR of MMP-3 mRNA in HCT116. The conditions noted are these: HCT116, 1 μM, 36 hours. The experiment is classed as cell-based. As to the method: as §1
Take `CCCC(=O)Nc1ccc(NC(=O)/C=C(C)/C=C/C=C(C)/C=C/C2=C(C)CCCC2(C)C)cc1` [KCBG40, (2E,4E,6E,8E)-[3,7-dimethyl-9-(2,6,6-trimethylcyclohex-1-enyl)-nona-2,4,6,8-tetraenoylamino]-(4-butyrylamino)phenylamide]: the “effect on MMP-3 mRNA expression level” value is “weakly”.

For orientation: IC50 means the concentration that gives 50% inhibition.
